According to US20200316156A1, “NASAL BALM FOR RELIEVING ALLERGIC RHINITIS SYMPTOMS” (priority 2019, published 2020):
Where “and” joins values, the source holds several entries; their conditions need not be identical. Equal entries are not always repeated. Structures can show the parent of a compound that is named as a salt.

Test system: allergic rhinitis of BALB/c mice
Test: OVA-induced allergic rhinitis in BALB/c mice, sneeze number
Type: in vivo
Settings: for Sneeze number, individual mouse: within 15 min after administration, mice No. 1-4, hydrochloride
Method: 1. Experimental objective: to study the effect of the nasal balm of the disclosure on the allergic rhinitis of BALB/c mice.
2 mg of OVA powder was weighed, dissolved with physiologic saline solution. The final volume was calibrated accurately to 14 mL. 3.5 mL of the OVA solution was pipetted into a 5 mL Eppendorf tube, followed by the addition of 0.5 mL of uniform aluminum hydroxide gel, and then the OVA solution was dropwise added. The mixture was shaken for 30 min, and then 0.2 mL of the resulting solution was injected to each mouse to induce the sensitization.
2 mg of OVA powder was weighed, dissolved with physiologic saline solution. The final volume was calibrated accurately to 14 mL.
The mice were quarantined, adaptively fed, and divided into four groups: normal group, model group, positive control group and test group. Each group had 4 mice labeled as No. 1, No. 2, No. 3 and No. 4, respectively. The rest two mice were as backup.
The model group, positive control group and test group were administered with OVA solution through abdominal cavity to induce sensitization. Each mouse was administered with 0.2 mL of OVA solution containing 25 μg of OVA and 1 mg of aluminum hydroxide. Normal group as a control was injected with physiological saline solution at a dosage of 0.2 mL per mouse, where the first injection was labeled as D0, and the second injection and the third injection were performed on D7 and D14, respectively.
After induction, the drugs were administrated to initiate sensitization. The test product was smeared on the noses of the mice in normal group 6 times each day. After application of the test product each day, 20 μL of physiological saline solution was dripped into the nasal cavity of the mice in normal group as a control, at a dosage of 10 μL per nostril. The physiological saline solution was smeared on the nose of the mice in model group 6 times each day. 5 μL of Levocabastine was dripped into the nasal cavity of the mice in positive control group 2 times each day, at a dosage of 2.5 μL per nostril. The test product was smeared on the noses of the mice in test group 6 times each day. After administration of the drugs each day, 20 μL of the OVA solution for sensitization was dripped into the nasal cavity of the mice in model group, positive control group and test group, respectively, at a dosage of 10 μL per nostril.
Daily administration was continued for 10 days from D20-D30. On D23, D27 and D30 (that is, the 3rd day, 7th day and 10th day after administration), the number of times mice sneezed in each group within 15 min after administration was counted.
Unpaired two-tailed t-test was used to analyze data for each group.

## C[C@@H]1CN([C@H]2CC[C@](C#N)(c3ccc(F)cc3)CC2)CC[C@]1(C(=O)O)c1ccccc1 [Levocabastine, Levocabastine hydrochloride]
3rd day of administration
  Sneeze number compared with the model group: decreased significantly
7th day of administration
  Sneeze number compared with the model group: no significant difference
10th day of administration
  Sneeze number compared with the model group: no significant difference
D23 (3rd day of administration)
  Sneeze number, individual mouse: 7 and 15 and 8 and 11
D23, group of 4 mice, model group 22.75 ± 1.50
  Sneeze number of mice, statistical data: 10.25 ± 3.59
D27 (7th day of administration)
  Sneeze number, individual mouse: 75 and 45 and 44 and 22
D27, group of 4 mice, model group 69.75 ± 17.08
  Sneeze number of mice, statistical data: 46.50 ± 21.76
D30 (10th day of administration)
  Sneeze number, individual mouse: 124 and 108 and 46 and 110
D30, group of 4 mice, model group 100.25 ± 14.13
  Sneeze number of mice, statistical data: 97.00 ± 34.74
